# Test results taken from US10576062B2, “Carbamoyloxymethyl triazole cyclohexyl acids as LPA antagonists” (Bristol-Myers Squibb Company, priority 2016, dated 2020).
# pIC50: −log10 of the molar value.
# Molecular target: T1, human LPA1 (Homo sapiens, UniProt Q92633)
# T1 construct: expressed in transfected cells; host or cells: Chinese hamster ovary (CHO) cells
# Test: LPA1 functional antagonist assay (LPA-induced calcium flux)
# Type: cell-based
# Conditions: CHO cells overexpressing human LPA1; inhibition of calcium flux induced by 10 nM LPA; read-out: hLPA1 IC50
# Method: The effectiveness of compounds of the present invention as LPA1 inhibitors can be determined in an LPA1 functional antagonist assay as follows: Chinese hamster ovary cells overexpressing human LPA1 were plated overnight (15,000 cells/well) in poly-D-lysine coated 384-well microplates (Greiner bio-one, Cat #781946) in DMEM/F12 medium (Gibco, Cat #11039). Following overnight culture, cells were loaded with calcium indicator dye (AAT Bioquest Inc, Cat #34601) for 30 minutes at 37° C. The cells were then equilibrated to room temperature for 30 minutes before the assay. Test compounds solubilized in DMSO were transferred to 384 well non-binding surface plates (Corning, Cat #3575) using the Labcyte Echo acoustic dispense and diluted with assay buffer [1×HBSS with calcium/magnesium (Gibco Cat #14025-092), 20 mM HEPES (Gibco Cat #15630-080) and 0.1% fatty acid free BSA (Sigma Cat #A9205)] to a final concentration of 0.5% DMSO. Diluted compounds were added to the cells by FDSS6000 (Hamamatsu) at final concentrations ranging from 0.08 nM to 5 μM. and were then incubated for 20 min at room temperature at which time LPA (Avanti Polar Lipids Cat #857130C) was added at final concentrations of 10 nM to stimulate the cells. […] IC50 values were determined by fitting data to a 4-parameter logistic equation (GraphPad Prism, San Diego Calif.).
# T1 sequence (Q92633 whole entry): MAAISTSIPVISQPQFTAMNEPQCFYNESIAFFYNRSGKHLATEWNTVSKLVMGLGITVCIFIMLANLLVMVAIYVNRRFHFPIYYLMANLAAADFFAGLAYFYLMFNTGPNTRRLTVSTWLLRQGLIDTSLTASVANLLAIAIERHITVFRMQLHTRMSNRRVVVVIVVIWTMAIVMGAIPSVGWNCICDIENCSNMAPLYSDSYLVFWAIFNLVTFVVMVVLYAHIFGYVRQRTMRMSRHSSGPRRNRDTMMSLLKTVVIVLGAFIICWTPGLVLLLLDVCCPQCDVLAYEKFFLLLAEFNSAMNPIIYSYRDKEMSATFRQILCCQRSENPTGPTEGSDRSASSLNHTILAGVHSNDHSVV
row,pIC50,SMILES
1,7.57,"CN(CC1CCC1)C(=O)OCc1c(-c2ccc(O[C@H]3CCC[C@H](C(=O)O)C3)c(CF)n2)nnn1C [Example 266, (1S,3 S)-3-((6-(5-((((cyclobutylmethyl)(methyl)carbamoyl)oxy)methyl)-1-methyl-1H-1,2,3-triazol-4-yl)-2-(fluoromethyl)pyridin-3-yl)oxy)cyclohexane-1-carboxylic Acid]"
2,7.64,"CCCC(C)(C)N(C)C(=O)OCc1c(-c2ccc(O[C@H]3CCC[C@H](C(=O)O)C3)cc2)nnn1C [Example 10, (1S,3S)-3-(4-(1-Methyl-5-(((methyl(2-methylpentan-2-yl)carbamoyl)oxy)methyl)-1H-1,2,3-triazol-4-yl)phenoxy)cyclohexanecarboxylic Acid]"
3,7.47,"CCc1nc(-c2nnn(C)c2COC(=O)N(C)C23CC(C2)C3)ccc1O[C@H]1CCC[C@H](C(=O)O)C1 [Example 206, (1S,3S)-3-((6-(5-(((bicyclo[1.1.1]pentan-1-yl(methyl)carbamoyl)oxy)methyl)-1-methyl-1H-1,2,3-triazol-4-yl)-2-ethylpyridin-3-yl)oxy)cyclohexane-1-carboxylic acid]"
4,6.32,"CCCN(C)C(=O)OCc1c(-c2ccc(O[C@H]3CCC[C@H](C(=O)O)C3)c(COC)n2)nnn1C [Example 283, (1S,3S)-3-((2-(methoxymethyl)-6-(1-methyl-5-(((methyl(propyl)carbamoyl)oxy)methyl)-1H-1,2,3-triazol-4-yl)pyridin-3-yl)oxy)cyclohexane-1-carboxylic acid]"
5,7.15,"Cc1nc(-c2nnn(C)c2COC(=O)N(C)CCC2CC2)cnc1O[C@H]1CCC[C@H](C(=O)O)C1 [Example 225, (1S,3S)-3-((5-(5-((((2-cyclopropylethyl)(methyl)carbamoyl)oxy)methyl)-1-methyl-1H-1,2,3-triazol-4-yl)-3-methylpyrazin-2-yl)oxy)cyclohexane-1-carboxylic acid]"
6,8.10,"CCc1nc(-c2nnn(C)c2COC(=O)N(C)C2CCC2)ccc1O[C@H]1CCC[C@H](C(=O)O)C1 [Example 203, (1S,3S)-3-((6-(5-(((cyclobutyl(methyl)carbamoyl)oxy)methyl)-1-methyl-1H-1,2,3-triazol-4-yl)-2-ethylpyridin-3-yl)oxy)cyclohexane-1-carboxylic acid]"
7,7.96,"CCCN(C)C(=O)OCc1c(-c2ccc(O[C@H]3CCC[C@H](C(=O)O)C3)c(CC)n2)nnn1C [Example 200, (1S,3S)-3-((2-ethyl-6-(1-methyl-5-(((methyl(propyl)carbamoyl)oxy)methyl)-1H-1,2,3-triazol-4-yl)pyridin-3-yl)oxy)cyclohexane-1-carboxylic acid]"
8,7.25,"CCCCCN(C)C(=O)OCc1c(-c2cnc(O[C@H]3CCC[C@H](C(=O)O)C3)c(C)n2)nnn1C [Example 223, (1S,3S)-3-((3-methyl-5-(1-methyl-5-(((methyl(pentyl)carbamoyl)oxy)methyl)-1H-1,2,3-triazol-4-yl)pyrazin-2-yl)oxy)cyclohexane-1-carboxylic acid]"
9,8.40,"CCCN(C)C(=O)OCc1c(-c2ccc(O[C@H]3CCC[C@H](C(=O)O)C3)c(OC)n2)nnn1C [Example 272, (1S,3 S)-3-((2-Methoxy-6-(1-methyl-5-(((methyl(propyl)carbamoyl)oxy)methyl)-1H-1,2,3-triazol-4-yl)pyridin-3-yl)oxy)cyclohexane-1-carboxylic Acid]"
10,6.07,"CCc1nc(-c2nnn(C)c2COC(=O)NC23CC(C2)C3)ccc1O[C@H]1CCC[C@H](C(=O)O)C1 [Example 205, (1S,3S)-3-((6-(5-(((bicyclo[1.1.1]pentan-1-ylcarbamoyl)oxy)methyl)-1-methyl-1H-1,2,3-triazol-4-yl)-2-ethylpyridin-3-yl)oxy)cyclohexane-1-carboxylic acid]"
11,7.17,"CCc1nc(-c2nnn(C)c2COC(=O)N2CC3(CCC3)C2)ccc1O[C@H]1CCC[C@H](C(=O)O)C1 [Example 210, (1S,3S)-3-((6-(5-(((2-azaspiro[3.3]heptane-2-carbonyl)oxy)methyl)-1-methyl-1H-1,2,3-triazol-4-yl)-2-ethylpyridin-3-yl)oxy)cyclohexane-1-carboxylic acid]"
12,7.77,"Cc1nc(-c2nnn(C)c2COC(=O)N(C)CCCC(C)F)ccc1O[C@H]1CCC[C@H](C(=O)O)C1 (stereo partly drawn) [Example 256, (1S,3S)-3-((6-(5-((((4-fluoropentyl)(methyl)carbamoyl)oxy)methyl)-1-methyl-1H-1,2,3-triazol-4-yl)-2-methylpyridin-3-yl)oxy)cyclohexane-1-carboxylic acid]"

# Same assay, conditions: human LPA1; read-out: hLPA1 IC50
row,pIC50,SMILES
1,6.88,"CCCN(C)C(=O)OCc1c(-c2ccc(O[C@H]3CCC[C@H](C(=O)O)C3)cn2)nnn1C [Example 173, (1S,3S)-3-((6-(1-methyl-5-(((methyl(propyl)carbamoyl)oxy)methyl)-1H-1,2,3-triazol-4-yl)pyridin-3-yl)oxy)cyclohexane-1-carboxylic acid]"
2,7.54,"Cc1nc(-c2nnn(C)c2COC(=O)N(C)C2CC(C)(C)C2)ccc1O[C@H]1CCC[C@H](C(=O)O)C1 [Example 168, (1S,3S)-3-((6-(5-((((3,3-dimethyl-cyclobutyl)(methyl)carbamoyl)oxy)methyl)-1-methyl-1H-1,2,3-triazol-4-yl)-2-methylpyridin-3-yl)oxy)cyclohexane-1-carboxylic acid]"
3,6.92,"Cc1nc(-c2nnn(C)c2COC(=O)N(C)CC2(F)CCC2)ccc1O[C@H]1CCC[C@H](C(=O)O)C1 [Example 189, (1S,3S)-3-((6-(5-(((((1-fluorocyclobutyl)methyl)(methyl)carbamoyl)oxy)methyl)-1-methyl-1H-1,2,3-triazol-4-yl)-2-methylpyridin-3-yl)oxy)cyclohexane-1-carboxylic acid]"

# Same assay, conditions: read-out: hLPA1 IC50
row,pIC50,SMILES
1,7.05,"Cc1nc(-c2nnn(C)c2COC(=O)N2CCC3(CC3)C2)ccc1O[C@H]1CCC[C@H](C(=O)O)C1 [Example 144, (1S,3S)-3-((6-(5-(((5-azaspiro[2.4]heptane-5-carbonyl)oxy)methyl)-1-methyl-1H-1,2,3-triazol-4-yl)-2-methylpyridin-3-yl)oxy)cyclohexane-1-carboxylic acid]"
2,6.56,"CN(CC1CC1)C(=O)OCc1c(-c2ccc(O[C@H]3CCC[C@H](C(=O)O)C3)cc2)nnn1C (racemic) [Example 61, (rac)-trans-3-(4-(5-((((cyclopropylmethyl)(methyl)carbamoyl)oxy)methyl)-1-methyl-1H-1,2,3-triazol-4-yl)phenoxy)cyclohexane-1-carboxylic acid]"
3,7.51,"[2H]C([2H])([2H])n1nnc(-c2ccc(O[C@H]3CCC[C@H](C(=O)O)C3)cn2)c1COC(=O)N(C)CC1CC1 [Example 110, (1S,3S)-3-((6-(5-((((cyclopropylmethyl)(methyl)carbamoyl)oxy)methyl)-1-(methyl-d3)-1H-1,2,3-triazol-4-yl)pyridin-3-yl)oxy)cyclohexane-1-carboxylic acid]"
4,6.96,"CC(C1CCC1)N(C)C(=O)OCc1c(-c2ccc(O[C@H]3CCC[C@H](C(=O)O)C3)cc2)nnn1C (single isomer, unassigned) [Example 67, trans-3-(4-(5-((((1-cyclobutylethyl)(methyl)carbamoyl)oxy)methyl)-1-methyl-1H-1,2,3-triazol-4-yl)phenoxy)cyclohexane-1-carboxylic acid]"
5,7.74,"Cc1nc(-c2nnn(C)c2COC(=O)N(C)CC2CC2)ccc1O[C@H]1CCC[C@H](C(=O)O)C1 [Example 115, (1S,3S)-3-((6-(5-((((cyclopropylmethyl)(methyl)carbamoyl)oxy)methyl)-1-methyl-1H-1,2,3-triazol-4-yl)-2-methylpyridin-3-yl)oxy)cyclohexane-1-carboxylic acid]"
6,8.00,"C[C@H](C1CC1)N(C)C(=O)OCc1c(-c2ccc(O[C@H]3CCC[C@H](C(=O)O)C3)c(F)c2)nnn1C [Example 70, (1S,3S)-3-(4-(5-(((((R)-1-cyclopropylethyl)(methyl)carbamoyl)oxy)methyl)-1-methyl-1H-1,2,3-triazol-4-yl)-2-fluorophenoxy)cyclohexane-1-carboxylic acid]"
7,8.22,"Cc1cc(-c2nnn(C)c2COC(=O)N(C)[C@H](C)C2CC2)ccc1O[C@H]1CCC[C@H](C(=O)O)C1 [Example 36, (1S,3S)-3-(4-(5-(((((R)-1-cyclopropylethyl)(methyl)carbamoyl)oxy)methyl)-1-methyl-1H-1,2,3-triazol-4-yl)-2-methylphenoxy)cyclohexane-1-carboxylic acid]"
8,6.45,"Cc1nc(-c2nnn(C)c2COC(=O)N(C)C2(C(C)C)CC2)ccc1O[C@H]1CCC[C@H](C(=O)O)C1 [Example 129, (1S,3S)-3-((6-(5-((((1-isopropylcyclopropyl)(methyl)carbamoyl)oxy)methyl)-1-methyl-1H-1,2,3-triazol-4-yl)-2-methylpyridin-3-yl)oxy)cyclohexane-1-carboxylic acid]"
9,7.33,"Cc1nc(-c2nnn(C)c2COC(=O)N2CCC3(CCC3)C2)ccc1O[C@H]1CCC[C@H](C(=O)O)C1 [Example 135, (1S,3S)-3-((6-(5-(((6-azaspiro[3.4]octane-6-carbonyl)oxy)methyl)-1-methyl-1H-1,2,3-triazol-4-yl)-2-methylpyridin-3-yl)oxy)cyclohexane-1-carboxylic acid]"
